This note sets out measurements from BindingDB's records for doi:10.1002/cbic.201100332 (University of British Columbia, 2011).

This assay addresses T1, Lysosomal acid glucosylceramidase (Homo sapiens, UniProt P04062).
T1 sequence (P04062 whole entry): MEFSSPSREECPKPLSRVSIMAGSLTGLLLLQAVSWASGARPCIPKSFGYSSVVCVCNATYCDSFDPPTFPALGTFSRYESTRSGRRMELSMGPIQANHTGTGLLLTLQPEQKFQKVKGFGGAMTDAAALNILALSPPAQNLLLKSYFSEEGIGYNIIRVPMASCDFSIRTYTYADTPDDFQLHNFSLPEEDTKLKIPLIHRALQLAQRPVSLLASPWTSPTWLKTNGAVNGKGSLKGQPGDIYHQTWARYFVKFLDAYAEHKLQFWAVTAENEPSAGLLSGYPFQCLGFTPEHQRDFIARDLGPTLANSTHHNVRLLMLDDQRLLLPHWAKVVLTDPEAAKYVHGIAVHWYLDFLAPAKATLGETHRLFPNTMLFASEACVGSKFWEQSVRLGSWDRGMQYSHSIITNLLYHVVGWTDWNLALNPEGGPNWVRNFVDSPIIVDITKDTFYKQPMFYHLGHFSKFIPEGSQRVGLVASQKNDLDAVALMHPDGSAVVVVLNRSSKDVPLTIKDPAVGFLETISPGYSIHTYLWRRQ
Briefly: Fluorescene-based Assay. The source says: Fluorescene-based assay using beta-glucocerebrosidase.

In the case of `CCCC1NCC(O)C(O)C1CO` (stereo unspecified) [Isofagomine derivative, 6], the Ki amounted to 610 nM (pH 5.5) and 210 nM (pH 7).
In turn, `CCCC1(CCC)NCC(O)C(O)C1CO` (stereo unspecified) [Isofagomine derivative, 8] yielded a Ki (pH 5.5) of 600 nM and a Ki (pH 7) of 1400 nM.
On the same counts, the results for `OCCCC1NCC(O)C(O)C1CO` (stereo unspecified) [Isofagomine derivative, 10] are 100 nM and 110 nM.
